Test results from patent publication US7652044B2, “P-38 inhibitors” (Novartis A.G., priority 2003, dated 2010).

Molecular target: T1, p38α kinase (Homo sapiens, UniProt Q16539)
T1 construct: purchased Upstate
Assay: p38α assay (enzyme inhibition)
Type: biochemical
Experimental: Compound inhibitory activity was measured in a radioactive enzyme assay. The buffer composition was adopted from Lisnock et al (Biochemistry, 1998, vol. 37, pp 16573-16581). Peptide substrate was selected from Chen et al (Biochemistry, 2000, vol. 39, 2079-2087). The concentrations of p38α, [γ-^33P-ATP] and peptide were equal 1 nM, 85 uM and 250 uM, respectively. Incorporation of ^33P into peptide was measured using absorption on filtermats with subsequent wash with 100 mM phosphoric acid followed by ethanol.
cDNAs of human p38α and β were cloned by PCR. The α and β cDNAs were subcloned into DEST2 plasmid (Gateway, InVitrogen). His6-p38 fusion protein was expressed in E. coli and purified from bacterial lysates by affinity chromatography using Ni^+2-NTA-agarose. His6-p38 protein was activated by incubating with constitutively active MKK6. Active p38 was separated from MKK6 by affinity chromatography. Constitutively active MKK6 was generated in a manner similar to Raingeaud et al. (Mol. Cell. Biol., 1247-1255 (1996)).
The p38α assay employed is based on measurement of ADP released in the reaction of interest through NADH oxidation obtained by coupling with pyruvate kinase and lactate dehydrogenase reactions. The assays were performed in 384-well UV-plates. The final volume was 25 uL prepared from the addition of 2.5 uL compound dissolved in 10% DMSO, 17.5 uL of assay buffer and 5 uL of ATP. Assay buffer contains the following reagents to give final concentration in the assay: 25 mM HEPES, 20 mM 2-glycerophosphate, pH 7.6, 10 mM MgCl2, 0.1 mM sodium orthovanadate, 0.5 mM phosphoenolpyruvate, 0.12 mM NADH, 3.1 mg/ml LDH, 6.67 mg/ml pyruvate kinase, 0.25 mM peptide substrate, 2 mM DTT, 0.005% Tween 80 and 20 nM p38α kinase from Upstate. Test compounds are preincubated with p38α kinase for 60 min and the reaction started by addition of ATP to 0.15 mM final concentration. Reaction rates were measured at 340 nm using SpectraMax plate-reading spectrophotometer for 10 min at 37° C. Inhibition data were analyzed by non-linear least-squares regression using SigmaPlot.

T1 sequence (Q16539 whole entry): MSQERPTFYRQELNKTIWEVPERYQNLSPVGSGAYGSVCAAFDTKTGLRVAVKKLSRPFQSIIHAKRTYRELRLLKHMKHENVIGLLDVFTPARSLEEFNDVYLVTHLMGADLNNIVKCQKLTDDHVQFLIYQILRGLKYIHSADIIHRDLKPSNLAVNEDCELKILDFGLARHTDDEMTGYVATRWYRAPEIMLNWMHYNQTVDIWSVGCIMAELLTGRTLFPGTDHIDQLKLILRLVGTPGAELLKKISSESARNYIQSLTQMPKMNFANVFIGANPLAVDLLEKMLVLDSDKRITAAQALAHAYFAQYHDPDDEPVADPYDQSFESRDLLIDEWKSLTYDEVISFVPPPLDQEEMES

Row | SMILES | IC50
1 | Cc1ccc(C(=O)NC2CC2)cc1Nc1nc(-c2ccccc2)cs1 [Compound 3, N-Cyclopropyl-4-methyl-3-(4-phenyl-thiazol-2-ylamino)-benzamide] | > 0.1 µM
2 | CONC(=O)c1ccc(C)c(Nc2nnc(-c3ccccc3)[nH]2)c1 [Compound 1, N-methoxy-4-methyl-3-(5-phenyl-4H-[1,2,4]triazol-3-ylamino)-benzamide] | < 0.05 µM
3 | Cc1ccc(C(=O)NC2CC2)cc1Nc1ncc(C(=O)NCc2ccccc2)s1 [Compound 26, 2-(5-Cyclopropylcarbamoyl-2-methyl-phenylamino)-thiazole-5-carboxylic acid benzylamide] | < 0.05 µM
4 | CONC(=O)c1ccc(C)c(Nc2noc(-c3ccccc3)n2)c1 [Compound 2, N-methoxy-4-methyl-3-(5-phenyl-[1,2,4]oxadiazol-3-ylamino)-benzamide] | < 0.05 µM

Further lines, results first:

Row | IC50 | SMILES
5 | > 0.1 µM | Cc1ccc(C(=O)NC2CC2)cc1Nc1nc(-c2ccc3[nH]ccc3c2)c(C(=O)NCc2ccccc2)s1 [Compound 28-40, 2-(5-Cyclopropylcar-bamoyl-2-methyl-phenylamino)-4-(1H-indol-5-yl)-thiazole-5-carboxylic acid benzylamide]
6 | < 0.05 µM | Cc1ccc(C(=O)NC2CC2)cc1Nc1nc(-c2cccc(CN)c2)c(C(=O)NCc2ccccc2)s1 [Compound 28-24, 4-(3-Aminomethyl-phenyl)-2-(5-cyclo-propylcarbamoyl-2-methylphenylamino) thiazole-5-carboxylic acid benzylamide]
7 | 0.05 to 0.1 µM | Cc1cccc(-c2nc(Nc3cc(C(=O)NC4CC4)ccc3C)sc2C(=O)NCc2ccccc2)c1 [Compound 28-6, 2-(5-Cyclopropylcar-bamoyl-2-methyl-phenylamino)-4-m-tolyl-thiazole-5-carboxylic acid benzylamide]
8 | 0.05 to 0.1 µM | Cc1ccc(C(=O)NC2CC2)cc1Nc1nc(-c2cccc(C#N)c2)c(C(=O)NCc2ccccc2)s1 [Compound 28-9, 4-(3-Cyano-phenyl)-2-(5-cyclopropyl-carbamoyl-2-methyl-phenylamino)thia-zole-5-carboxylic acid benzylamide]
